Reference: patent US7205299B2, “Indole derivatives having an apoptosis-inducing effect” (Zentaris GmbH, priority 2003, dated 2007)
Converted amounts (≈) assume the structure as drawn.

Tests used:
[1] = tested on: resistant line L1210/mdr (L1210VCR); test: XTT proliferation assay, L1210VCR; type: cell-based, murine; settings: Mus musculus
Text: (§1) For further characterization, substances 1, 2, 4 and 11 were investigated with regard to their effect on mulitdrug-resistance cell lines as compared with that on nonresistant wild-type cell lines.
(§2) The cell lines which were investigated are the murine cell line L1210, the acute myeloid leukemia cell line LT12 and the resistant lines L1210/mdr and LT12/mdr. The murine cell line P388 (methylcholanthrene-induced lymphoid neoplasm) and doxorubicin-resistant P388 were also included as test systems.
(§3) The test results are summarized in Table 2 below: • XTT proliferation assay, EC50 in μg/ml

[2] = tested on: KB/HeLa cells; test: Cell cycle analysis (G2/M arrest); type: cell-based; settings: Homo sapiens, 24 hours, 37° C., read-out: EC50 (50% of cells in G2/M)
Method: For the cell cycle analysis, KB/HeLa cells were treated with different concentrations of the test substances (0.1–1000 nM) at 37° C. for 24 hours.
The percentage of cells arrested in the G2/M phase of the cell cycle after having been treated with reference substances or selected test substances is shown in Table 4 below. The results were analyzed using special analytical software (ModFit™).

[3] = tested on: resistant line LT12/mdr; test: XTT proliferation assay, LT12/mdr; type: cell-based; settings: Rattus norvegicus, LT12mdr
Text: as §1, §2, §3

[4] = molecular target: human topoisomerase II (Homo sapiens, UniProt P11388); test: pRYG relaxation assay for testing topoisomerase II activity; type: biochemical; settings: compound 1 at 100, 31.6 and 10 μM; reference compounds 316 and 100 μM
human topoisomerase II, sequence (P11388 whole entry): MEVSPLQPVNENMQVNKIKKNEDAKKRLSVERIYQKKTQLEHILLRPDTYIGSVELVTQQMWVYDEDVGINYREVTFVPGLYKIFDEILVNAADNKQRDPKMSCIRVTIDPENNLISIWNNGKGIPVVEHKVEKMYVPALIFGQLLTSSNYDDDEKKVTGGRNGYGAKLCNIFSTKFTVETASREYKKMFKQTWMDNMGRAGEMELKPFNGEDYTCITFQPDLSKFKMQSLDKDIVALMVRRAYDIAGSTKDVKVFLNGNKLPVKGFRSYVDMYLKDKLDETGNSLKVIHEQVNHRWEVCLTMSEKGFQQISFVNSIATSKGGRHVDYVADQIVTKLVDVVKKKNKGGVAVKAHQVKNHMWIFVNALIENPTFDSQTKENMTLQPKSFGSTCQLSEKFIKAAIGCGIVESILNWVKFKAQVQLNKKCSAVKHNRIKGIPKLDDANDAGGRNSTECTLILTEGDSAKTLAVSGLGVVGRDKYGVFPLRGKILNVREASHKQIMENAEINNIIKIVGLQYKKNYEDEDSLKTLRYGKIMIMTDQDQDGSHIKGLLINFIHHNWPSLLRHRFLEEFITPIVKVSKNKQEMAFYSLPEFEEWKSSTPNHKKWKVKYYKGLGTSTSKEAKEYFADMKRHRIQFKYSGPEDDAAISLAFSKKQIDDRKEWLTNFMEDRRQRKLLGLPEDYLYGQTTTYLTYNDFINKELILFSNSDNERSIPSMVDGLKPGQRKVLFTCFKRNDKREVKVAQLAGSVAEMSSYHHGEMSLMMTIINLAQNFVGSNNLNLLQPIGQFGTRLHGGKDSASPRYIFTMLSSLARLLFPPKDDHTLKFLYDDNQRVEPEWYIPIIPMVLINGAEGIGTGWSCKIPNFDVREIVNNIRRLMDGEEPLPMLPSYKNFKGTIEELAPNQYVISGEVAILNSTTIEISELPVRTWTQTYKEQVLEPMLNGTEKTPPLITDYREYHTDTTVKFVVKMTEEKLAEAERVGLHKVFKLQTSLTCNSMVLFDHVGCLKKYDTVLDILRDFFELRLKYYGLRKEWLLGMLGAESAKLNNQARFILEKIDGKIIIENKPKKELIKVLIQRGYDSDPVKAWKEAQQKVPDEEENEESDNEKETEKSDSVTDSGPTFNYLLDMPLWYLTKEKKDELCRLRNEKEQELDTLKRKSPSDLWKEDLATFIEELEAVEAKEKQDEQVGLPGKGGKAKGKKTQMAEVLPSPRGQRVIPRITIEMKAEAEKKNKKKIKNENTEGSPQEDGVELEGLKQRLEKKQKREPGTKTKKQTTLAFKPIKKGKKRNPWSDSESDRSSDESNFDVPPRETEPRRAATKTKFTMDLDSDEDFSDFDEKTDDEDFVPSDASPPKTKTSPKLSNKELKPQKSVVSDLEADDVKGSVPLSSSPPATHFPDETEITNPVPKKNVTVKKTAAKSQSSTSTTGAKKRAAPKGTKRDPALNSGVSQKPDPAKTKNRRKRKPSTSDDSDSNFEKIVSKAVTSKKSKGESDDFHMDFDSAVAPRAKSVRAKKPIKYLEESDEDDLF
Method: In the assay, the compound 1 according to the invention was tested at three different concentrations (100, 31.6 and 10 μM). The reference compounds m-amsacrine, paclitaxel (Taxol) and vincristine were used, at concentrations of 316 and 100 μM, for comparison.
2 μL of 10× assay buffer, 0.5 μL of pRYG DNA (125 ng), 0.5 μL of human topoisomerase II (1 unit) and 16 μL of H2O are added by pipette to 1 μL of initially introduced test substance (20 times concentrated in 100% DMSO) and the reagents are mixed. The reaction assay samples are placed in a heating block which has been preheated to 37° C. and incubated at 37° C. for 30 min. The incubation is stopped after adding 4 μL of 5× Stop buffer. After that, 10 μL of the assay sample are loaded onto a 1.2% agarose gel containing 0.25 μg of ethidium bromide/mL and separated at 100 V for 2.5 h. Finally, the gel is photographed under UV excitation (see FIG. 3). The inhibition of pRYG relaxation is quantified using the GelPro® Analyzer Software (see FIG. 4).

[5] = tested on: murine cell line L1210; test: XTT proliferation assay, L1210; type: cell-based; settings: Mus musculus
Text: as §1, §2, §3

[6] = tested on: murine cell line P388; test: XTT proliferation assay, P388; type: cell-based; settings: Mus musculus
Text: as §1, §2, §3

[7] = tested on: acute myeloid leukemia cell line LT12; test: XTT proliferation assay, LT12; type: cell-based; settings: Rattus norvegicus
Text: as §1, §2, §3

[8] = molecular target: human DNA topoisomerase II (Homo sapiens, UniProt P11388); test: kDNA assay for testing topoisomerase II activity; type: biochemical; settings: compound 1 at 100, 31.6 and 10 μM; reference compounds 100 μM
human DNA topoisomerase II, sequence (P11388 whole entry): as above
Method: In this assay, which was described by P. Arimondo (Anti-Cancer Drug Design 2000, 15(6), 413–421), kDNA is treated with human DNA topoisomerase II in the absence or presence of the test compounds. In the assay, compound 1 according to the invention was tested at three different concentrations (100, 31.6 and 10 μM). A positive control and the reference compounds m-amsacrine (m-amsa), paclitaxel (Taxol) and vincristine, with the concentration in each case being 100 μM, were used for comparison.
2 μL of 10× assay buffer, 1 μL of kDNA (200 ng), 0.5 μL of human topoisomerase II (1 unit) and 15.5 μL of H2O are added by pipette to 1 μL of initially introduced test substance (20 times concentrated in 100% DMSO) and the reagents are mixed.
The reaction assay samples are placed in a heating block which has been preheated to 37° C. and incubated at 37° C. for 10 min. The incubation is stopped after adding 4 μL of 5× Stop buffer and the substance is subsequently extracted with CIA. After that, 20 μL of the supernatant are loaded onto a 1% agarose gel containing 0.25 μg of ethidium bromide/mL and separated at 100 V for 1 h. Finally, the gel is photographed under UV excitation (see FIG. 1). The inhibition of the decatenation of kDNA is quantified using the GelPro® Analyzer Software (see FIG. 2).

[9] = tested on: doxorubicin-resistant P388; test: XTT proliferation assay, P388ADR; type: cell-based, murine; settings: Mus musculus
Text: as §1, §2, §3

[10] = tested on: ovarian adenocarcinoma cell line SKOV-3; test: XTT proliferation assay, SKOV-3; type: cell-based, human
Text: (§4) The antiproliferative activity of substances 1, 2, 4, 9, 11, 12, 13 and 15 was investigated in a proliferation test performed on established tumor cell lines (D. A. Scuderio et al. Cancer Res. 1988, 48, 4827–4833). The test which is used determines the cellular dehydrogenase activity and makes it possible to determine cell viability and determine cell number indirectly. The cell lines which are used are the human cervical carcinoma cell line KB/HeLa (ATCC CCL17), the ovarian adenocarcinoma cell line SKOV-3 (ATCC HTB77), the human glioblastoma cell line SF-268 (NCI 503138) and the lung carcinoma cell line NCI-H460 (NCI 503473).

[11] = tested on: human cervical carcinoma cell line KB/HeLa; test: XTT proliferation assay, KB/HeLa; type: cell-based
Text: as §4

[12] = tested on: lung carcinoma cell line NCI-H460; test: XTT proliferation assay, NCI-H460; type: cell-based, human
Text: as §4

[13] = tested on: human glioblastoma cell line SF-268; test: XTT proliferation assay, SF-268; type: cell-based
Text: as §4

[14] = molecular target: bovine tubulin (Bos taurus, UniProt P81947+Q6B856); test: Inhibition of tubulin polymerization; type: biochemical; settings: summary of Table 3
bovine tubulin, sequence (P81947 whole entry): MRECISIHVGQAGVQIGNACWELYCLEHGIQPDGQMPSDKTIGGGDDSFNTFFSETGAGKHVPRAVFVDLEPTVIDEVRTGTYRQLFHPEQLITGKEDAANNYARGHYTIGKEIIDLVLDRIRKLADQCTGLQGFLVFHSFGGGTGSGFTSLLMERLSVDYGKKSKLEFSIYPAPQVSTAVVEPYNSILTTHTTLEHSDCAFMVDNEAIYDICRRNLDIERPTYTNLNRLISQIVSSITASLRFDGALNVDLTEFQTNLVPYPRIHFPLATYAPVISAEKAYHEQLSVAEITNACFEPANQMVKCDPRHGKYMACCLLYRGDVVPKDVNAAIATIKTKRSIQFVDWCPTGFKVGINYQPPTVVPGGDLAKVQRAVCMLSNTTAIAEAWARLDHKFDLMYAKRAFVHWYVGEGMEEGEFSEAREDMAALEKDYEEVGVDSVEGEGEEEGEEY
bovine tubulin, sequence (Q6B856 whole entry): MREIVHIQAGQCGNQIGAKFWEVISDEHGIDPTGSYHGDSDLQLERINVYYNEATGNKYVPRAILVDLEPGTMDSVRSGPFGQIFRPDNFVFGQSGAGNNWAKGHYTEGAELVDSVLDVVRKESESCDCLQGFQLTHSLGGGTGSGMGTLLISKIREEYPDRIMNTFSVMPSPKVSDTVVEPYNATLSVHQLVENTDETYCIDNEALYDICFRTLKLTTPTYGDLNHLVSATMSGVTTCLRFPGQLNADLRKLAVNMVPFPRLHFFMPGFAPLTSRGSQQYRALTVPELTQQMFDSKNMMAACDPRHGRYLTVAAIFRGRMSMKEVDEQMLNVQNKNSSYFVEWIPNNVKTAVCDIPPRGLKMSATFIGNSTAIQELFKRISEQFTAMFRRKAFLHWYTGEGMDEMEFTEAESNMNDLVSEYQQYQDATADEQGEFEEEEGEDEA
Method: Substances 1, 4, 9, 11, 12, 13 and 15 were tested for their ability to inhibit the polymerization of bovine tubulin in an in-vitro test (D. M. Bollag et al. Cancer Res. 1995, 55, 2325–2333). This test uses-tubulin which has been purified by cycles of polymerization and depolymerization and which is caused to polymerize by adding GTP and heating it. Table 3 gives the EC50 values causing inhibition of the polymerization of tubulin containing 30% associated proteins (MPAs).

In the case of `CC(=O)O[C@H]1C(=O)[C@@]2(C)[C@H]([C@H](OC(=O)c3ccccc3)[C@]3(O)C[C@H](OC(=O)[C@H](O)[C@@H](NC(=O)c4ccccc4)c4ccccc4)C(C)=C1C3(C)C)[C@]1(OC(C)=O)CO[C@@H]1C[C@@H]2O` [Paclitaxel, paclitaxel], the EC50 [1] is reported as over 3.16 µg/mL, the EC50 [2] is reported as 26.9 nM and the EC50 [3] is reported as 0.34 µg/mL (≈ 0.398 µM). The “inhibition of topoisomerase II, pRYG DNA relaxation” value [4] was “neither paclitaxel nor vincristine was observed to have any inhibitory effects”, the EC50 [5] was 0.048 µg/mL (≈ 0.0562 µM) and the EC50 [6] was 0.035 µg/mL (≈ 0.041 µM). For the same compound, the EC50 [7] was 0.005 µg/mL (≈ 0.00586 µM), the “inhibition of topoisomerase II, kDNA decatenation” value [8] was “neither paclitaxel nor vincristine was observed to have any inhibitory effects” and the EC50 [9] was over 3.16 µg/mL.

`O=C(Nc1ccc2ncccc2c1)C(=S)c1cn(Cc2ccc(Cl)cc2)c2ccccc12` [Compound 11, 2-[1-(4-chlorobenzyl)-1H-indol-3-yl]-N-quinolin-6-yl-2-thioxoacetamide] was tested, and the EC50 ([10]; Homo sapiens, SK-OV-3, read-out: XTT proliferation assay, EC50, SKOV3) was 0.029 µg/mL (≈ 0.0636 µM), the EC50 ([11]; Homo sapiens, HeLa) was 0.036 µg/mL (≈ 0.079 µM) and the EC50 [1] was 0.067 µg/mL (≈ 0.147 µM). The EC50 [2] was 41.8 nM, the EC50 ([12]; Homo sapiens) was 0.057 µg/mL (≈ 0.125 µM) and the EC50 [3] was 0.054 µg/mL (≈ 0.118 µM). It also gave an EC50 ([13]; Homo sapiens) of 0.036 µg/mL (≈ 0.079 µM), an EC50 [5] of 0.052 µg/mL (≈ 0.114 µM) and an EC50 [6] of 0.018 µg/mL (≈ 0.0395 µM). The EC50 [7] was 0.023 µg/mL (≈ 0.0504 µM), the EC50 [9] was 0.051 µg/mL (≈ 0.112 µM) and the “inhibitory effect on tubulin polymerization (in words)” value [14] was “very potent inhibitory effect”.

With `O=C(Nc1cccc2cnccc12)C(=O)c1cn(Cc2ccc(Cl)cc2)c2ccccc12` [Compound 13, 2-[l-(4-chlorobenzyl)-1H-indol-3-yl]-N-isoquinolin-5-yl-2-oxoacetamide] the “XTT proliferation assay, EC50, SKOV3” value ([10]; SKOV3) was over 3.16 µg/mL, the “XTT proliferation assay, EC50, KB/HeLa” value ([11]; KB/HeLa) was over 3.16 µg/mL and the “XTT proliferation assay, EC50, NCI-H460” value [12] was over 3.16 µg/mL. For the same compound, the “XTT proliferation assay, EC50, SF-268” value [13] was over 3.16 µg/mL and the “inhibitory effect on tubulin polymerization (in words)” value [14] was “do not exert any effect”.
